The assay deals with tobacco-smoke-enhanced cough response to 0.3 M citric acid. The assay is described as follows: Citric acid-induced cough and Penh in tobacco smoke-exposed conscious guinea-pigs (plethysmograph). Particulars: 1 hour prior to citric acid challenge, mean±s.e. mean; for percentage inhibition of tobacco-smoke-enhanced cough: vs vehicle. Format: in vivo, guinea-pig. The procedure: Male Dunkin-Hartley guinea-pigs (350-550 g) are exposed to either air or tobacco smoke generated by four research cigarettes, (2R4F; Kentucky, USA) for a 3 second puff every 30 sec, for 2 days. At 24 hours after the last exposure conscious, unrestrained animals are placed in a plethysmograph chamber (Buxco, USA) and challenged with an aerosol of 0.3 M citric acid in 0.9% saline for 10 minutes. Cough and Penh AUC (measure of bronchoconstriction) are recorded during the 10 minute exposure and for a further 10 minutes after exposure using the method described in El-Hashim A. et al. Pulmonary Pharmacology & Therapeutics 17(1) (2004) pages 11-18.
To evaluate the effects of 2-(2-Hydroxy-ethylcarbamoyloxymethyl)-5,7-dimethyl-3-(2-methylsulfamoyl-phenyl)-4-oxo-3,4-dihydro-quinazoline-6-carboxylic acid ethyl ester on the enhanced cough response, animals are dosed subcutaneously with the compound (0.3-10 mg/kg, n=3-10) or vehicle (3:1 PEG200:saline, n=10) at 1 hour prior to citric acid challenge. The percentage inhibition of the cough response following compound administration compared with vehicle administration in tobacco smoke-exposed animals is determined. Data are expressed as mean±s.e. mean and significance is defined as p<0.05 (ANOVA & Dunnett's multiple comparison test).

Setting [1] is: 3 mg/kg subcutaneously, significant.

`CCOC(=O)c1c(C)cc2nc(COC(=O)NCCO)n(-c3ccccc3S(=O)(=O)NC)c(=O)c2c1C` [2-(2-Hydroxy-ethylcarbamoyloxy-methyl)-5,7-dimethyl-3-(2-methylsulfamoyl-phenyl)-4-oxo-3,4-dihydro-quinazoline-6-carboxylic acid ethyl ester]: the “inhibition of baseline Penh value (measure of bronchoconstriction)” value stood at 48±17% (0.3 mg/kg subcutaneously), 55±19% (1 mg/kg subcutaneously), 77±10% under setting [1] and 86±2% (10 mg/kg subcutaneously). The “percentage inhibition of tobacco-smoke-enhanced cough” value is on record as 18±14% (0.3 mg/kg subcutaneously); 49±17% (1 mg/kg subcutaneously, significant); 80±13% under setting [1]; 100±0% (10 mg/kg subcutaneously, significant).
